Measurements reported in publication PMC4954967, “Identification of a diazinon-metabolizing glutathione S-transferase in the silkworm, Bombyx mori” (Scientific Reports, 2016).
Numbering of substitutions follows the chain as printed.

Legend:
Test in all cases: spectrophotometric GST assay at […] nm, nonlinear least-squares fit
Assay type in all cases: biochemical
bmGSTu2 [1] = target: T1, bmGSTu2 (Bombyx mori, UniProt A9XI30, I54A); details: read-out: I54A; 5 mM GSH; value (SD), n = 3
T1 construct: full length, 233 residues, 26,667 Da calculated; cDNA from fat body; pET-22b (EcoRI/XhoI, reverse primer without stop codon), E. coli Rosetta (DE3) pLysS
T1 sequence (A9XI30 1-233 I54A): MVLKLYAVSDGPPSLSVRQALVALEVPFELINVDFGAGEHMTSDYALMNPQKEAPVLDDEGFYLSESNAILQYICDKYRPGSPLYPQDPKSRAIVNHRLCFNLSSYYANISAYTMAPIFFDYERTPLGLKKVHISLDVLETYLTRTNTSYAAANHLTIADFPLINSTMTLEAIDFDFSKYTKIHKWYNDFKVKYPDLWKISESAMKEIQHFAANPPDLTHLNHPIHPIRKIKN

bmGSTu2 [2] = target: T2, bmGSTu2 (Bombyx mori, UniProt A9XI30, N68A); details: read-out: N68A; 5 mM GSH; value (SD), n = 3
T2 construct: full length, 233 residues, 26,667 Da calculated; cDNA from fat body; pET-22b (EcoRI/XhoI, reverse primer without stop codon), E. coli Rosetta (DE3) pLysS
T2 sequence (A9XI30 1-233 N68A): T1 sequence (A9XI30 1-233 I54A) with A54I, N68A

bmGSTu2 [3] = target: T3, bmGSTu2 (Bombyx mori, UniProt A9XI30, S67A); details: read-out: S67A; 5 mM GSH; value (SD), n = 3
T3 construct: full length, 233 residues, 26,667 Da calculated; cDNA from fat body; pET-22b (EcoRI/XhoI, reverse primer without stop codon), E. coli Rosetta (DE3) pLysS
T3 sequence (A9XI30 1-233 S67A): T1 sequence (A9XI30 1-233 I54A) with A54I, S67A

bmGSTu2 [4] = target: T4, bmGSTu2 (Bombyx mori, UniProt A9XI30); details: read-out: Wild-type; 5 mM GSH; value (SD), n = 3
T4 construct: full length, 233 residues, 26,667 Da calculated; cDNA from fat body; pET-22b (EcoRI/XhoI, reverse primer without stop codon), E. coli Rosetta (DE3) pLysS
T4 sequence (A9XI30 1-233): T1 sequence (A9XI30 1-233 I54A) with A54I

bmGSTu2 [5] = target: T5, bmGSTu2 (Bombyx mori, UniProt A9XI30, E66A); details: read-out: E66A; 5 mM GSH; value (SD), n = 3
T5 construct: full length, 233 residues, 26,667 Da calculated; cDNA from fat body; pET-22b (EcoRI/XhoI, reverse primer without stop codon), E. coli Rosetta (DE3) pLysS
T5 sequence (A9XI30 1-233 E66A): T1 sequence (A9XI30 1-233 I54A) with A54I, E66A

Question: Which results are given for O=[N+]([O-])c1ccc(Cl)c([N+](=O)[O-])c1 [CDNB]?
Answer: Km (bmGSTu2 [1]): 2500 µM; Km (bmGSTu2 [2]): 530 µM; Km (bmGSTu2 [3]): 1600 µM; Km (bmGSTu2 [4]): 270 µM; Km (bmGSTu2 [5]): 910 µM
